Assays:
morningglory = assay: Test C postemergence; format: in vivo, Ipomoea coccinea
Method in brief: (§1)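 Seeds sown in loam–sand blend and treated preemergence with test chemicals in non-phytotoxic solvent with surfactant; postemergence plants in peat-based medium, treated at 2–18 cm (1- to 4-leaf stage). Greenhouse 13 to 15 days, then visual rating versus controls, 0 (no effect) to 100 (complete control).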

barnyardgrass = assay: Test C postemergence; format: in vivo, Echinochloa crus-galli
Method in brief: as §1

blackgrass = assay: Test C postemergence; format: in vivo, Alopecurus myosuroides
Method in brief: as §1

oilseed rape = assay: Test C postemergence; format: in vivo, Brassica napus
Method in brief: as §1

foxtail, giant = assay: Test C postemergence; format: in vivo, Setaria faberii
Method in brief: as §1

ryegrass, Italian = assay: Test C postemergence; format: in vivo, Lolium multiflorum
Method in brief: as §1

galium = assay: Test C postemergence; format: in vivo, Galium aparine
Method in brief: as §1

kochia = assay: Test C postemergence; format: in vivo, Kochia scoparia
Method in brief: as §1

oat, wild = assay: Test C postemergence; format: in vivo, Avena fatua
Method in brief: as §1

lambsquarters [1] = assay: Test C preemergence; format: in vivo, Chenopodium album; conditions: for Lambsquarters plant response rating: scale 0 to 100 (0 no effect, 100 complete control)
Method in brief: as §1

nutsedge, yellow = assay: Test C postemergence; format: in vivo, Cyperus esculentus
Method in brief: as §1

crabgrass, large = assay: Test C postemergence; format: in vivo, Digitaria sanguinalis
Method in brief: as §1

lambsquarters [2] = assay: Test C postemergence; format: in vivo, Chenopodium album
Method in brief: as §1

velvetleaf = assay: Test C postemergence; format: in vivo, Abutilon theophrasti
Method in brief: as §1

waterhemp = assay: Test C postemergence; format: in vivo, Amaranthus rudis
Method in brief: as §1

[3] = Postemergence, 31 g ai/ha, visually evaluated after 13 to 15 days
[4] = postemergence, 62 g ai/ha, scale 0 to 100
[5] = postemergence, 250 g ai/ha, scale 0 to 100 (0 no effect, 100 complete control)
[6] = postemergence, 125 g ai/ha, scale 0 to 100, 0 no effect, 100 complete control

CCCc1cc(C(=O)NCC)nn1Cc1cc(C(F)(F)F)nn1C [Compound 129]
Plant response rating (scale of 0 to 100 where 0 is no effect and 100 is complete control), Morningglory (morningglory; [3]): 80 | Morningglory plant response rating (morningglory; [4]): 100 | Plant response rating, Morningglory (morningglory; [5]): 100 | Plant response rating, Morningglory (morningglory; [6]): 100 | Plant response rating (scale of 0 to 100 where 0 is no effect and 100 is complete control), Barnyardgrass (barnyardgrass; [3]): 5 | Barnyardgrass plant response rating (barnyardgrass; [4]): 10 | Plant response rating, Barnyardgrass (barnyardgrass; [5]): 55 | Plant response rating, Barnyardgrass (barnyardgrass; [6]): 10 | Plant response rating (scale of 0 to 100 where 0 is no effect and 100 is complete control), Blackgrass (blackgrass; [3]): 10 | Blackgrass plant response rating (blackgrass; [4]): 5 | Plant response rating, Blackgrass (blackgrass; [5]): 20 | Plant response rating, Blackgrass (blackgrass; [6]): 35 | Plant response rating (scale of 0 to 100 where 0 is no effect and 100 is complete control), Oilseed Rape (oilseed rape; [3]): 60 | Oilseed Rape plant response rating (oilseed rape; [4]): 60 | Plant response rating, Oilseed Rape (oilseed rape; [5]): 70 | Plant response rating, Oilseed Rape (oilseed rape; [6]): 65 | Plant response rating (scale of 0 to 100 where 0 is no effect and 100 is complete control), Foxtail, Giant (foxtail, giant; [3]): 15 | Foxtail, Giant plant response rating (foxtail, giant; [4]): 20 | Plant response rating, Foxtail, Giant (foxtail, giant; [5]): 45 | Plant response rating, Foxtail, Giant (foxtail, giant; [6]): 35 | Plant response rating (scale of 0 to 100 where 0 is no effect and 100 is complete control), Ryegrass, Italian (ryegrass, Italian; [3]): 0 | Ryegrass, Italian plant response rating (ryegrass, Italian; [4]): 5 | Plant response rating, Ryegrass, Italian (ryegrass, Italian; [5]): 5 | Plant response rating, Ryegrass, Italian (ryegrass, Italian; [6]): 5 | Plant response rating (scale of 0 to 100 where 0 is no effect and 100 is complete control), Galium (galium; [3]): 60 | Galium plant response rating (galium; [4]): 65 | Plant response rating, Galium (galium; [5]): 80 | Plant response rating, Galium (galium; [6]): 80 | Plant response rating (scale of 0 to 100 where 0 is no effect and 100 is complete control), Kochia (kochia; [3]): 90 | Kochia plant response rating (kochia; [4]): 90 | Plant response rating, Kochia (kochia; [5]): 90 | Plant response rating, Kochia (kochia; [6]): 90 | Plant response rating (scale of 0 to 100 where 0 is no effect and 100 is complete control), Oat, Wild (oat, wild; [3]): 30 | Oat, Wild plant response rating (oat, wild; [4]): 30 | Plant response rating, Oat, Wild (oat, wild; [5]): 35 | Plant response rating, Oat, Wild (oat, wild; [6]): 35 | Plant response rating (scale of 0 to 100), Lambsquarters (lambsquarters [1]; Preemergence, 250 g ai/ha): 100 | Lambsquarters plant response rating (lambsquarters [1]; preemergence, 31 g ai/ha, visual rating, 13 to 15 days): 98 | Lambsquarters plant response rating (lambsquarters [1]; preemergence, 62 g ai/ha, 13 to 15 days): 100 | Plant response rating, Lambsquarters (lambsquarters [1]; preemergence, 125 g ai/ha, 13 to 15 days, scale 0 to 100, 0 = no effect, 100 = complete control): 100 | Plant response rating (scale of 0 to 100 where 0 is no effect and 100 is complete control), Nutsedge, Yellow (nutsedge, yellow; [3]): 0 | Nutsedge, Yellow plant response rating (nutsedge, yellow; [4]): 0 | Plant response rating, Nutsedge, Yellow (nutsedge, yellow; [5]): 5 | Plant response rating, Nutsedge, Yellow (nutsedge, yellow; [6]): 5 | Plant response rating (scale of 0 to 100 where 0 is no effect and 100 is complete control), Crabgrass, Large (crabgrass, large; [3]): 10 | Crabgrass, Large plant response rating (crabgrass, large; [4]): 10 | Plant response rating, Crabgrass, Large (crabgrass, large; [5]): 20 | Plant response rating, Crabgrass, Large (crabgrass, large; [6]): 35 | Plant response rating (scale of 0 to 100 where 0 is no effect and 100 is complete control), Lambsquarters (lambsquarters [2]; [3]): 55 | Lambsquarters plant response rating (lambsquarters [2]; [4]): 100 | Plant response rating, Lambsquarters (lambsquarters [2]; [5]): 98 | Plant response rating, Lambsquarters (lambsquarters [2]; [6]): 98 | Plant response rating (scale of 0 to 100 where 0 is no effect and 100 is complete control), Velvetleaf (velvetleaf; [3]): 25 | Velvetleaf plant response rating (velvetleaf; [4]): 65 | Plant response rating (scale of 0 to 100 where 0 is no effect and 100 is complete control), Waterhemp (waterhemp; [3]): 65 | Waterhemp plant response rating (waterhemp; [4]): 90 | Plant response rating, Waterhemp (waterhemp; [5]): 90 | Plant response rating, Waterhemp (waterhemp; [6]): 80

Source: patent US20150105252A1, “SUBSTITUTED PYRAZOLES AS HERBICIDES” (E I DU PONT DE NEMOURS AND COMPANY, priority 2013, published 2015)
